Usually Kd stands for a measure of binding affinity in units of concentration.

The target in experiment [1] is T1, yeast Tango2p (Saccharomyces cerevisiae, UniProt P53275).
T1 sequence (P53275 1-312): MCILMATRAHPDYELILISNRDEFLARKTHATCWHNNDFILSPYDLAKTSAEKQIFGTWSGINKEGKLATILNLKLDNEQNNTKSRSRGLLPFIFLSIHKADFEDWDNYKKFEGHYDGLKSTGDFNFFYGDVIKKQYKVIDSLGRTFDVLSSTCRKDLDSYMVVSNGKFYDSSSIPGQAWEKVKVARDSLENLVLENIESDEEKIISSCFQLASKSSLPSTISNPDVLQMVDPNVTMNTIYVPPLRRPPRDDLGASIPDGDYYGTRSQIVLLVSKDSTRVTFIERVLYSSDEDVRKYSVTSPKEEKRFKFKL
Put plainly: UV-vis difference spectra titration. It is filed as binding.

In experiment [2] the target is T1, yeast Tango2p. In words: UV-vis difference spectra titration. The class given is binding. This is another data set of the same source.

Like-named read-outs stand apart in the source and are kept apart here.

For the molecule `C=CC1=C(C)C2=Cc3c(C=C)c(C)c4[n]3[Fe][n]3c(c(C)c(CCC(=O)O)c3=CC3=NC(=C4)C(C)=C3CCC(=O)O)=CC1=N2` [ferrous haem], the affinity on yeast Tango2p [1], expressed as Kd, was 15.4 µM.

At yeast Tango2p [2], `C=CC1=C(C)C2=Cc3c(C=C)c(C)c4[n]3[Fe][n]3c(c(C)c(CCC(=O)O)c3=CC3=NC(=C4)C(C)=C3CCC(=O)O)=CC1=N2` [ferric haem] displayed a Kd of 38.7 µM. This counts as double-digit micromolar.
